Source: patent US20240025906A1 (NEURON23, INC., priority 2022, published 2024)

The compounds below were run on JAK1/TYK2 pSTAT5 (Tyr694/699) in THP-1 cell line (assay: IFNa-stimulated JAK1/TYK2 pSTAT5 (Tyr694/699) inhibition cellular assay, AlphaLISA). Details: Homo sapiens; THP-1 cells, IFNa-stimulated pSTAT5 (Tyr694/699), AlphaLISA (Assay B); read-out: Cellular_THP1_IFNa-pSTATS_TYK2.
Assay type: cell-based
Procedure: Assay B: JAK1/TYK2 pSTAT5 (Tyr694/699) inhibition IC50 Cellular Assays
To evaluate the inhibition effect of compounds disclosed herein against TYK2, an IFNa-stimulated JAE1/TYK2 pSTAT5 (Tyr694/699) quantification assay was conducted in the THP-1 cell line using an AlphaLISA detection method (PerkinElmer ALSU-PST5). Compounds in DMSO were serially diluted in a 96-well plate (10 mM starting concentration, 6-fold dilutions, 8 concentrations total) prior to dispensing of 8 nL into a 384-well plate using an I.DOT non-contact liquid handler (Dispendix). Cells were collected via centrifugation at 300 ref for 5 min and resuspended in Hanks' Balanced Salt Solution (Gibco 14175-079), and 6 μl containing 2e4 cells was dispensed into each well of the 384-well plate containing test compounds or DMSO alone (final concentrations: 10000, 1666.67, 277.78, 46.30, 7.72, 1.29, 0.21 and 0.04 nM). Cells were then incubated for 1 h at 37° C. with 5% CO2 prior to the addition of 2 μL IFNa (100 ng/mL; PBL Assay Science 11175-1). Following an additional 30 min incubation at 37° C. with 5% CO2, 2 μL of 5× lysis buffer was added to each well using the I.DOT […]. Plates were sealed and incubated at RT for 10 min on a plate shaker set to 400 RPM. Cell lysates were then frozen at −80° C. before subsequent detection of pSTAT5 by AlphaLISA. At the time of the detection assay, cell lysates were thawed for 5 min at room temperature and then on a plate shaker set to 400 RPM for an additional 10 min. Following the manufacturer recommended protocol (Perkin Elmer), 5 μL of acceptor bead master mix was added to each well; plates were then resealed and incubated for 2 min at RT on a plate shaker (400 rpm) prior to an additional 2-h incubation without agitation (protected from light). Donor bead master mix, 5 uL per well, was then added to each well before 2 min of shaking (RT, 400 rpm) and 2-h incubation (RT, no shaking, protected from light). Levels of pSTAT5 protein were then measured as fluorescent signal at 615 nm with an EnVision multimode plate reader (Perkin Elmer). IC50 values were calculated in Dotmatics using the four-parameter logistic curve regression model with bottom fixed to 0 and Hill Slope fixed to −1.

Row | IC50 [nM] | SMILES
1 | > 500 | CNc1ncc(C#Cc2cccc3c2CNCC3)c2cc(NC(=O)C3CC3)ncc12 [Example 1137, N-(8-(methylamino)-5-((1,2,3,4-tetrahydroisoquinolin-8-yl)ethynyl)-2,7-naphthyridin-3-yl)cyclopropanecarboxamide]
2 | ≤ 500 | CNc1ncc(C#Cc2cnc(C)n2C(F)F)c2cc(NC(=O)[C@H]3C[C@H]3C)ncc12 [Example 1140, (1S,2R)—N-(5-((1-(difluoromethyl)-2-methyl-1H-imidazol-5-yl)ethynyl)-8-(methylamino)-2,7-naphthyridin-3-yl)-2-methylcyclopropanecarboxamide]

The next lines start with the compound.

Row | SMILES | IC50 [nM]
3 | CNc1ncc(-c2nc3ncc(C)cc3o2)c2cc(NC(=O)C3CC3)ncc12 [Example 1104, N-(8-(methylamino)-5-(6-methyloxazolo[4,5-b]pyridin-2-yl)-2,7-naphthyridin-3-yl)cyclopropanecarboxamide] | ≤ 500
4 | CNc1ncc(C#Cc2nccc3cc(F)ccc23)c2cc(NC(=O)C3CC3)ncc12 [Example 1135, N-(5-((6-fluoroisoquinolin-1-yl)ethynyl)-8-(methylamino)-2,7-naphthyridin-3-yl)cyclopropanecarboxamide] | ≤ 500
5 | CNc1ncc(C#Cc2ccc3c(=O)n(C)ccc3c2)c2cc(NC(=O)C3CC3)ncc12 [Example 1136, N-(5-((2-methyl-1-oxo-1,2-dihydroisoquinolin-6-yl)ethynyl)-8-(methylamino)-2,7-naphthyridin-3-yl)cyclopropanecarboxamide] | ≤ 500
6 | CNc1ncc(C#Cc2cn(C(F)F)c(C)n2)c2cc(NC(=O)[C@H]3C[C@H]3C)ncc12 [Example 1139, (1S,2R)—N-(5-((1-(difluoromethyl)-2-methyl-1H-imidazol-4-yl)ethynyl)-8-(methylamino)-2,7-naphthyridin-3-yl)-2-methylcyclopropanecarboxamide] | ≤ 500

Same assay, conditions: Homo sapiens; THP-1 cells, IFNa-stimulated, AlphaLISA (Assay B); read-out: Cellular THP1_IFNa-pSTATS_IC50

Row | IC50 [nM] | SMILES
7 | ≤ 500 | CNc1ncc(/C=C/c2ccccc2OC)c2cc(NC(=O)C3CC3)ncc12 [Example 174, (E)-N-(5-(2-methoxystyryl)-8-(methylamino)-2,7-naphthyridin-3-yl)cyclopropanecarboxamide]

Same assay, conditions: Homo sapiens; THP-1 cells, IFNa-stimulated, AlphaLISA (Assay B); read-out: Cellular_THP1_IFNa-pSTATS_TYK2

Row | IC50 [nM] | SMILES
8 | ≤ 500 | CNc1ncc(-c2cc3ccc(N4CCO[C@@H](C)C4)cn3n2)c2cc(NC(=O)C3CC3)ncc12 [Example 797, (S)—N-(8-(methylamino)-5-(6-(2-methylmorpholino)pyrazolo[1,5-a]pyridin-2-yl)-2,7-naphthyridin-3-yl)cyclopropanecarboxamide]
9 | ≤ 500 | CNc1ncc(C#Cc2ccc(C(C)(C)O)cc2)c2cc(NC(=O)C3CC3)ncc12 [Example 802, N-(5-((4-(2-hydroxypropan-2-yl)phenyl)ethynyl)-8-(methylamino)-2,7-naphthyridin-3-yl)cyclopropanecarboxamide]
10 | ≤ 500 | CNc1ncc(C#Cc2ccc3nc(CF)n(C)c3c2)c2cc(NC(=O)C3CC3)ncc12 [Example 810, N-(5-((2-(fluoromethyl)-1-methyl-1H-benzo[d]imidazol-6-yl)ethynyl)-8-(methylamino)-2,7-naphthyridin-3-yl)cyclopropanecarboxamide]
11 | ≤ 500 | CNc1ncc(C#Cc2ccc(Cn3nccn3)cn2)c2cc(NC(=O)C3CC3)ncc12 [Example 908, N-(5-((5-((2H-1,2,3-triazol-2-yl)methyl)pyridin-2-yl)ethynyl)-8-(methylamino)-2,7-naphthyridin-3-yl)cyclopropanecarboxamide]
12 | ≤ 500 | CNc1ncc(C#Cc2ccc(Cn3ccnn3)cn2)c2cc(NC(=O)C3CC3)ncc12 [Example 909, N-(5-((5-((1H-1,2,3-triazol-1-yl)methyl)pyridin-2-yl)ethynyl)-8-(methylamino)-2,7-naphthyridin-3-yl)cyclopropanecarboxamide]
13 | ≤ 500 | CNc1ncc(C#Cc2ccc(C(C)(C)C#N)cc2)c2cc(NC(=O)C3CC3)ncc12 [Example 910, N-(5-((4-(2-cyanopropan-2-yl)phenyl)ethynyl)-8-(methylamino)-2,7-naphthyridin-3-yl)cyclopropanecarboxamide]
14 | ≤ 500 | CNc1ncc(C#Cc2ccc(CC#N)cn2)c2cc(NC(=O)C3CC3)ncc12 [Example 911, N-(5-((5-(cyanomethyl)pyridin-2-yl)ethynyl)-8-(methylamino)-2,7-naphthyridin-3-yl)cyclopropanecarboxamide]

Second part, the compound before the results:

Row | SMILES | IC50 [nM]
15 | CNc1ncc(-c2nc3cnc(C(F)F)cc3o2)c2cc(NC(=O)C3CC3)ncc12 [Example 461, N-(5-(6-(difluoromethyl)oxazolo[4,5-c]pyridin-2-yl)-8-(methylamino)-2,7-naphthyridin-3-yl)cyclopropanecarboxamide] | ≤ 500
16 | CCNc1ncc(-c2nc3cc(N4CC5CNCC(C4)O5)ccc3o2)c2cc(NC(=O)C3CC3)ncc12 [Example 466, N-(5-(5-(9-oxa-3,7-diazabicyclo[3.3.1]nonan-3-yl)benzo[d]oxazol-2-yl)-8-(ethylamino)-2,7-naphthyridin-3-yl)cyclopropanecarboxamide] | ≤ 500
17 | CNc1ncc(C#Cc2ccc3c(c2)CC(=O)N3C)c2cc(NC(=O)C3CC3)ncc12 [Example 803, N-(5-((1-methyl-2-oxoindolin-5-yl)ethynyl)-8-(methylamino)-2,7-naphthyridin-3-yl)cyclopropanecarboxamide] | ≤ 500
18 | CNc1ncc(C#Cc2ccc(CN3CCO[C@@H](C)C3)cc2)c2cc(NC(=O)C3CC3)ncc12 [Example 814, (S)—N-(8-(methylamino)-5-((4-((2-methylmorpholino)methyl)phenyl)ethynyl)-2,7-naphthyridin-3-yl)cyclopropanecarboxamide] | ≤ 500
19 | CNc1ncc(-c2nc3cc(N4CCO[C@@H](C)C4)ccc3o2)c2cc(NC(=O)[C@H]3C[C@H]3C)nnc12 [Example 891, (1S,2R)-2-methyl-N-(8-(methylamino)-5-(5-((S)-2-methylmorpholino)benzo[d]oxazol-2-yl)pyrido[3,4-c]pyridazin-3-yl)cyclopropane-1-carboxamide] | ≤ 500
20 | CNc1ncc(-c2nc3ccc(N4CCOCC4)cn3n2)c2cc(Nc3ccccn3)nnc12 [Example 892, N^8-methyl-5-(6-morpholino-[1,2,4]triazolo[1,5-a]pyridin-2-yl)-N^3-(pyridin-2-yl)pyrido[3,4-c]pyridazine-3,8-diamine] | ≤ 500
21 | CNc1ncc(C#Cc2ccc(CN3CCC3)cn2)c2cc(NC(=O)C3CC3)ncc12 [Example 905, N-(5-((5-(azetidin-1-ylmethyl)pyridin-2-yl)ethynyl)-8-(methylamino)-2,7-naphthyridin-3-yl)cyclopropanecarboxamide] | ≤ 500
22 | CNc1ncc(C#Cc2ccc(CN3CC(F)(F)C3)cn2)c2cc(NC(=O)C3CC3)ncc12 [Example 906, N-(5-((5-((3,3-difluoroazetidin-1-yl)methyl)pyridin-2-yl)ethynyl)-8-(methylamino)-2,7-naphthyridin-3-yl)cyclopropanecarboxamide] | ≤ 500
23 | CNc1ncc(C#Cc2ccc(Cn3cccn3)cn2)c2cc(NC(=O)C3CC3)ncc12 [Example 907, N-(5-((5-((1H-pyrazol-1-yl)methyl)pyridin-2-yl)ethynyl)-8-(methylamino)-2,7-naphthyridin-3-yl)cyclopropanecarboxamide] | ≤ 500
24 | CNc1ncc(C#Cc2ccc(CN3CC(OC)C3)cn2)c2cc(NC(=O)C3CC3)ncc12 [Example 912, N-(5-((5-((3-methoxyazetidin-1-yl)methyl)pyridin-2-yl)ethynyl)-8-(methylamino)-2,7-naphthyridin-3-yl)cyclopropanecarboxamide] | ≤ 500

Same assay, conditions: THP-1 cells, IFNa-stimulated, AlphaLISA (Assay B); read-out: Cellular_THP1_IFNa-pSTATS_TYK2

Row | IC50 [nM] | SMILES
25 | ≤ 500 | CNc1ncc(-c2nc3cc(-c4ncnn4C)ccc3o2)c2cc(NC(=O)C3CC3)ncc12 [Example 465]
